Reference: patent publication US8362012B2, “Benzoxazine benzimidazole derivative, a pharmaceutical composition comprising the same, and a use thereof” (Daewoong Pharmaceutical Co., Ltd., priority 2008, dated 2013)

Columns and labels:
[1] = biological target: T1, human vanilloid-1 (hVR-1) in hVR-1-HEK293 cell line (Homo sapiens, UniProt Q8NER1); test: Inhibitory effect on calcium influx via a vanilloid receptor (capsaicin-stimulated, Fluo-3/AM); type: cell-based; settings: hVR-1-HEK293 cells, 1 μM of capsaicin, compounds 0.015˜2000 nM; read-out: I.A. (inhibitory activity), IC50 on intracellular calcium influx
T1 construct: expressed in transfected cells; host or cells: HEK293 Tet-on strain, doxycycline-induced
Protocol: The cell line can modulate the expression of VR-1, depending on whether doxycycline, a derivative of tetracycline, is present or not. […] Specifically, hVR-1-HEK293 cells were cultured in a T75 flask to about 80% confluency, separated from the flask by treating with trypsin solution, and then collected by centrifugation. The cells were suspended in a medium containing 1 μg/mL of doxycycline, and the resulting suspension was diluted to a concentration of 2˜4×10^5 cells/mL […], of the cell suspension was placed in each well of a 96-well black plate. The cells were cultured in 5% CO2 incubator at 37° C. for 2 days, and used for the following procedure. […] The cells prepared in 1) above were cultured at 37° C. for 90 min in a solution containing Fluo-3/AM, a fluorescent dye, as a calcium indicator so that the fluorescent dye was permeated into the cells. […] In order to stimulate calcium influx through a vanilloid receptor, the cells were treated with 1 μM of capsaicin. […] The obtained data were input to the Hill equation represented by the following formula I and the values were analyzed: Intracellular calcium influx= [(fluorescent intensity of experimental group−fluorescent intensity of background)/(fluorescent intensity of positive control−fluorescent intensity of background)]*100 [Formula I] The inhibitory activities were evaluated from the obtained intracellular calcium influx values according to the following criteria.

ICR male mice = test: Phenyl-p-quinone (PBQ)-induced writhing experiment using mice; type: in vivo; settings: orally administered, PBQ (0.02%) intraperitoneally after 1 hour, writhing counted for 10 min
Protocol: In order to evaluate the effect on pain of the compounds prepared in the Examples, behaviors such as twisting or writhing of body resulted from pain were verified by the phenyl-p-quinone (PBQ)-induced writhing experiment using mice. 5 week-old ICR male mice were used as experimental animals and PBQ (0.02%), as a chemical stimulator. The suspensions of 20 mg of the compounds of the present invention and an excipient such as Na—CMC (sodium carboxymethyl cellulose) in 10 mL of saline were used as test compounds. The test compounds were orally administered to the mice and after 1 hour, PBQ was intraperitoneally administrated in an amount of 10 mL per kg of body weight. Also, as a control group, equivalent amounts of BCTC were administered. The writhing number of each mouse was measured for 10 min starting from 5 min after the administration, and the analgesic effect was verified by counting the reduced number compared to the control group administered with only excipient and calculating the % inhibitory rate according to the following Formula 2. % inhibition rate=(writhing # of control group−writhing # of test group)/writhing # of control group×100 [Formula 2]

T1 sequence (Q8NER1 whole entry): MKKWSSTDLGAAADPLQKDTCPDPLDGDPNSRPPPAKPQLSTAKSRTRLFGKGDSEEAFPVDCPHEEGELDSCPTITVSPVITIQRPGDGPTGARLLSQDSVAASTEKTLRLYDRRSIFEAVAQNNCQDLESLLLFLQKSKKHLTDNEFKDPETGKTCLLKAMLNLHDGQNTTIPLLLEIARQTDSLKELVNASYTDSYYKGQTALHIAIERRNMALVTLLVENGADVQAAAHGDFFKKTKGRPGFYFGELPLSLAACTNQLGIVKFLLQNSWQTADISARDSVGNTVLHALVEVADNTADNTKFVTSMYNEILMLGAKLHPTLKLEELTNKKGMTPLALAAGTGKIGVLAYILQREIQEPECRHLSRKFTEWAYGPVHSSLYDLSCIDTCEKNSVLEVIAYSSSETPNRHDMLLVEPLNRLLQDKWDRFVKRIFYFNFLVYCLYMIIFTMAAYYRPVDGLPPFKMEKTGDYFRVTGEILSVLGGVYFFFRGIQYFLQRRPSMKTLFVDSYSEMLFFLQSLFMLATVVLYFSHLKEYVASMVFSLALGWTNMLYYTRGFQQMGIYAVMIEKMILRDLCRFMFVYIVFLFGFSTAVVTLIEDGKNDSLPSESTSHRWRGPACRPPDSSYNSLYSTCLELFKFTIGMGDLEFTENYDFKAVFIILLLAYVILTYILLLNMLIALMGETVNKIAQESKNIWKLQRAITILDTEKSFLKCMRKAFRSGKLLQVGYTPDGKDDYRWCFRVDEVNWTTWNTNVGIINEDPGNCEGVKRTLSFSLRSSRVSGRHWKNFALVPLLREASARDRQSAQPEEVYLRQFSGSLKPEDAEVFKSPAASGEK

Row | Structure (SMILES) | IC50 [1] [nM] | I.A. (inhibitory activity), % inhibition rate of writhing (ICR male mice)
1 | Cc1ccc(N2c3cccc(-c4nc5ccc(Br)cc5[nH]4)c3OC[C@@H]2CO)nc1 [Example 36, [(S)-8-(6-bromo-1H-benzimidazol-2-yl)-4-(5-methyl-pyridin-2-yl)-3,4-dihydro-2H-benzo[1,4]oxazin-3-yl]-methanol] | < 20 | +++ (51-80%)
2 | Cc1ccc(N2c3cccc(-c4nc5ccc(Cl)cc5[nH]4)c3OC[C@@H]2CO)nc1 [Example 37, [(S)-8-(6-chloro-1H-benzimidazol-2-yl)-4-(5-methyl-pyridin-2-yl)-3,4-dihydro-2H-benzo[1,4]oxazin-3-yl]-methanol] | 20 to 100 | +++ (51-80%)
3 | Cc1ccc(N2c3cccc(-c4nc5cc(Cl)c(Cl)cc5[nH]4)c3OC[C@@H]2CO)nc1 [Example 38, [(S)-8-(5,6-dichloro-1H-benzimidazol-2-yl)-4-(5-methyl-pyridin-2-yl)-3,4-dihydro-2H-benzo[1,4]oxazin-3-yl]-methanol] | < 20 | +++ (51-80%)
4 | Cc1ccc(N2c3cccc(-c4nc5c(Cl)cc(C(F)(F)F)cc5[nH]4)c3OC[C@@H]2CO)nc1 [Example 39, [(S)-8-(4-chloro-6-trifluoromethyl-1H-benzimidazol-2-yl)-4-(5-methyl-pyridin-2-yl)-3,4-dihydro-2H-benzo[1,4]oxazin-3-yl]-methanol] | < 20 | +++ (51-80%)
5 | Cc1ccc(N2c3cccc(-c4nc5c(C(F)(F)F)cc(C(F)(F)F)cc5[nH]4)c3OC[C@@H]2CO)nc1 [Example 40, [(S)-8-(4,6-bis-trifluoromethyl-1H-benzimidazol-2-yl)-4-(5-methyl-pyridin-2-yl)-3,4-dihydro-2H-benzo[1,4]oxazin-3-yl]-methanol] | 20 to 100 | ++++ (>80%)
6 | Cc1ccc(N2c3cccc(-c4nc5c(Br)cc(C(F)(F)F)cc5[nH]4)c3OC[C@@H]2CO)nc1 [Example 41, [(S)-8-(4-bromo-6-trifluoromethyl-1H-benzimidazol-2-yl)-4-(5-methyl-pyridin-2-yl)-3,4-dihydro-2H-benzo[1,4]oxazin-3-yl]-methanol] | < 20 | ++ (20˜50%)
7 | Cc1ccc(N2c3cccc(-c4nc5c(Br)cc(Br)cc5[nH]4)c3OC[C@@H]2CO)nc1 [Example 42, [(S)-8-(4,6-dibromo-1H-benzimidazol-2-yl)-4-(5-methyl-pyridin-2-yl)-3,4-dihydro-2H-benzo[1,4]oxazin-3-yl]-methanol] | 20 to 100 | +++ (51-80%)
8 | Cc1ccc(N2c3cccc(-c4nc5c(F)cc(Br)cc5[nH]4)c3OC[C@@H]2CO)nc1 [Example 43, [(S)-8-(6-bromo-4-fluoro-1H-benzimidazol-2-yl)-4-(5-methyl-pyridin-2-yl)-3,4-dihydro-2H-benzo[1,4]oxazin-3-yl]-methanol] | < 20 | ++ (20˜50%)
9 | Cc1ccc(N2c3cccc(-c4nc5cc(F)c(F)cc5[nH]4)c3OC[C@@H]2CO)nc1 [Example 44, [(S)-8-(5,6-difluoro-1H-benzimidazol-2-yl)-4-(5-methyl-pyridin-2-yl)-3,4-dihydro-2H-benzo[1,4]oxazin-3-yl]-methanol] | < 20 | ++++ (>80%)
10 | Cc1ccc(N2c3cccc(-c4nc5cc(F)c(Cl)cc5[nH]4)c3OC[C@@H]2CO)nc1 [Example 45, [(S)-8-(6-chloro-5-fluoro-1H-benzimidazol-2-yl)-4-(5-methyl-pyridin-2-yl)-3,4-dihydro-2H-benzo[1,4]oxazin-3-yl]-methanol] | < 20 | +++ (51-80%)
11 | Cc1ccc(N2c3cccc(-c4nc5c(C)cc(Br)cc5[nH]4)c3OC[C@@H]2CO)nc1 [Example 46, [(S)-8-(6-bromo-4-methyl-1H-benzimidazol-2-yl)-4-(5-methyl-pyridin-2-yl)-3,4-dihydro-2H-benzo[1,4]oxazin-3-yl]-methanol] | < 20 | ++ (20˜50%)
12 | Cc1ccc(N2c3cccc(-c4nc5ccc(OC(F)(F)F)cc5[nH]4)c3OC[C@@H]2CO)nc1 [Example 47, [(S)-4-(5-methyl-pyridin-2-yl)-8-(6-trifluoromethoxy-1H-benzimidazol-2-yl)-3,4-dihydro-2H-benzo[1,4]oxazin-3-yl]-methanol] | < 20 | ++ (20˜50%)
13 | COc1ccc2nc(-c3cccc4c3OC[C@H](CO)N4c3ccc(C)cn3)[nH]c2c1 [Example 48, [(S)-8-(6-methoxy-1H-benzimidazol-2-yl)-4-(5-methyl-pyridin-2-yl)-3,4-dihydro-2H-benzo[1,4]oxazin-3-yl]-methanol] | 20 to 100 | ++ (20˜50%)
14 | Cc1ccc(N2c3cccc(-c4nc5ccc(F)cc5[nH]4)c3OC[C@@H]2CO)nc1 [Example 49, [(S)-8-(6-fluoro-1H-benzimidazol-2-yl)-4-(5-methyl-pyridin-2-yl)-3,4-dihydro-2H-benzo[1,4]oxazin-3-yl]-methanol] | < 20 | +++ (51-80%)
15 | Cc1ccc(N2c3cccc(-c4nc5c(C)cccc5[nH]4)c3OC[C@@H]2CO)nc1 [Example 50, [(S)-8-(4-methyl-1H-benzimidazol-2-yl)-4-(5-methyl-pyridine-2-yl)-3,4-dihydro-2H-benzo[1,4]oxazin-3-yl]-methanol] | < 20 | + (<20%)
16 | Cc1ccc(N2c3cccc(-c4nc5cc(C)ccc5[nH]4)c3OC[C@@H]2CO)nc1 [Example 51, [(S)-8-(5-methyl-1H-benzimidazol-2-yl)-4-(5-methyl-pyridin-2-yl)-3,4-dihydro-2H-benzo[1,4]oxazin-3-yl]-methanol] | < 20 | + (<20%)
17 | Cc1ccc(N2c3cccc(-c4nc5c(C)c(C)ccc5[nH]4)c3OC[C@@H]2CO)nc1 [Example 52, [(S)-8-(4,5-dimethyl-1H-benzimidazol-2-yl)-4-(5-methyl-pyridin-2-yl)-3,4-dihydro-2H-benzo[1,4]oxazin-3-yl]-methanol] | < 20 | ++ (20˜50%)
18 | Cc1ccc(N2c3cccc(-c4nc5ccccc5[nH]4)c3OC[C@@H]2CO)nc1 [Example 53, [(S)-8-(1H-benzimidazol-2-yl)-4-(5-methyl-pyridin-2-yl)-3,4-dihydro-2H-benzo[1,4]oxazin-3-yl]-methanol] | < 20 | + (<20%)
19 | C=Cc1ccc(N2c3cccc(-c4nc5ccc(Cl)cc5[nH]4)c3OC[C@@H]2CO)nc1 [Example 59, [(S)-8-(6-chloro-1H-benzimidazol-2-yl)-4-(5-vinyl-pyridin-2-yl)-3,4-dihydro-2H-benzo[1,4]oxazin-3-yl]-methanol] | < 20 | +++ (51-80%)
20 | C=Cc1ccc(N2c3cccc(-c4nc5ccc(Br)cc5[nH]4)c3OC[C@@H]2CO)nc1 [Example 60, [(S)-8-(6-bromo-1H-benzimidazol-2-yl)-4-(5-vinyl-pyridin-2-yl)-3,4-dihydro-2H-benzo[1,4]oxazin-3-yl]-methanol] | < 20 | +++ (51-80%)
21 | C=Cc1ccc(N2c3cccc(-c4nc5c(C)cc(Br)cc5[nH]4)c3OC[C@@H]2CO)nc1 [Example 66, [(S)-8-(6-bromo-4-methyl-1H-benzimidazol-2-yl)-4-(5-vinyl-pyridin-2-yl)-3,4-dihydro-2H-benzo[1,4]oxazin-3-yl]-methanol] | < 20 | +++ (51-80%)
22 | C=Cc1ccc(N2c3cccc(-c4nc5ccc(OC(F)(F)F)cc5[nH]4)c3OC[C@@H]2CO)nc1 [Example 67, [(S)-8-(6-trifluoromethoxy-1H-benzimidazol-2-yl)-4-(5-vinyl-pyridin-2-yl)-3,4-dihydro-2H-benzo[1,4]oxazin-3-yl]-methanol] | < 20 | +++ (51-80%)
23 | C=Cc1ccc(N2c3cccc(-c4nc5cc(Cl)c(Cl)cc5[nH]4)c3OC[C@@H]2CO)nc1 [Example 68, [(S)-8-(5,6-dichloro-1H-benzimidazol-2-yl)-4-(5-vinyl-pyridin-2-yl)-3,4-dihydro-2H-benzo[1,4]oxazin-3-yl]-methanol] | < 20 | +++ (51-80%)
